Assay results: patent publication US7183269B2, “Synergistic compositions for the selective control of tumor tissue” (priority 1997, dated 2007)

Legend:
[1] = tested on: RT112 tumor cells (bladder carcinoma); experiment: [3H]-TdR incorporation assay (proliferation); type: cell-based, human; conditions: in dependence of extracellular pH, FIG. 4
Description: The anticancer activity of salicylate combinations can also be examined by in vitro experiments with tumor cell lines. As a relevant criterion of toxic effects on cancer cells the proliferation rate can be considered. The proliferation rate effected by salicylate combinatioins can be measured in dependence of the extracellular pH-milieu. (Details for cell cultures, see Materials & Methods below.)
The effect of salicylate combinations on the proliferation of RT112 tumor cells is quantitated by the measurement of incorporated tritiated thymidine ([^3H]-TdR) into the cellular DNA of the cancer cells by liquid scintillation counting (LSC). (Method details, see Material & Methods below.)
(§1) The human bladder tumor cell line. RT112 or the human chronic myeloid leukemia cell line K562 were purchased from DKFZ Tumorzell—und datenbank (Institut für experimentelle Pathologie, Heidelberg, FRG) or DSM (Deutsche Sammlung von Mikroorganismen und Zellkulturen GmbH, Braunschweig, FRG), respectively. The cells were cultured in HEPES-buffered RPMI 1640 (SIGMA, Deisenhofen, FRG) supplemented with 2 mM L-glutamine (BIOCHROM, Berlin, FRG), 1% NEAE (BIOCHROM), 10% heat-inactivated fetal calf serum (BIOCHROM), 100 U/ml penicillin and 50 μg/ml streptomycin (BIOCHROM) at 37° C. and 5% CO2. Only mycoplasma-free cell cultures were used; this was frequently tested using a specific detection kit (BOEHRINGER MANNHEIM, Mannheim, FRG).
The influence of cytotoxic molecules on the proliferation of RT112 tumor cells was quantitated by the measurement of the incorporated tritiated thymidine ([^3H]-TdR) into the cellular DNA of the tumor cells by liquid scintillation counting (LSC). In brief, RT112 cells were harvested, washed twice and resuspended in culture media (2.5×10^5/ml). 100 μl/well of the RT112 cell suspension were seeded into 96 well microtiter plates (BECTON DICKINSON) and incubated over night at 37° C. and 5% CO2. The supernatant was replaced by 90 μl pH-adjusted culture medium (pH 6.0–7.4) and 10 μl of the solution of preferred substances or 100 μl/well pH-adjusted culture medium alone (control). The cells were incubated for various time periods at 37° C. and 5% CO2. Thereafter, cells were washed twice, reincubated in fresh pH-adjusted culture medium and pulsed for 24 h by the addition of 23.125 kBq [^3H]TdR/well (925 kBq/ml; AMERSHAM, Braunschweig, FRG). After freezing and thawing, radioactive DNA of the cultures were transferred to glass fiber filters with an automatic cell harvester (PHARMACIA). The incorporated radioactivity was measured in a liquid scintillation counter (PHARMACIA).

RT112 = experiment: Cell Death Detection ELISA (apoptosis kit) with RT112 as a function of pH; type: cell-based, human
Method: The measurements were carried out using a “Cell Death Detection ELISA” kit, Cat. No. 1774 425 commercially available from Boehringer (Mannheim). The process instructions are additionally supplied by Boehringer.
The OD value corresponds to the cell death.
The results of the experiments are summarized in FIGS. 1 to 3, which correspond to Tables 1 to 3. In the figures, the cell death is recorded in a ELISA (apoptosis kit) with RT112 as a function of the pH. That is to say the data on the Y axis of the figures is a measure of the cell death; the pH of the cells is indicated on the X axis. FIG. 1 and FIG. 2 show experiments in which individual compounds were employed. […] It stands out that at a pH of between 6.5 and 7.0 the compositions according to the invention cause a cell death which is preferably in the vicinity of or above the CAM value, which virtually corresponds to a complete destruction of the tumor tissue.
The apoptosis-inducing substance CAM used in the experiments is camptothecin (CAM value). In the experiments, positive control means that instead of the apoptotic cancer cells induced by the substances a histone-DNA complex with known detection sensitivity is employed for detection, i.e. an artificial apoptosis product is provided. In the experiments, negative control means that the same detection procedure is carried out, but without addition of substances or substance mixtures.
as §1

[2] = Table 2, measurement after 35 minutes, 10 mM, initial pH 6.0
[3] = Table 2, measurement after 35 minutes, 10 mM, initial pH 6.5
[4] = Table 2, measurement after 35 minutes, 10 mM, initial pH 7.0
[5] = Table 2, measurement after 35 minutes, 10 mM, initial pH 7.4
[6] = Table 2, measurement after 35 minutes, 15 mM, initial pH 6.0
[7] = Table 2, measurement after 35 minutes, 15 mM, initial pH 6.5
[8] = Table 2, measurement after 35 minutes, 15 mM, initial pH 7.0
[9] = Table 2, measurement after 35 minutes, 15 mM, initial pH 7.4

**Q.** With `O=C(O)c1cc(-c2ccc(F)cc2F)ccc1O` [Diflu, 5-(2,4-difluoro-phenyl)salicylic acid] as the compound, how does the “effect on the proliferation rate” value [1] read?
**A.** no effect or minor effect

**Q.** Which “OD (405–490 nm)” value (RT112; [2]) does the source give for `CC(=O)Oc1ccccc1C(=O)O` [Substance 121, acetylsalicylic acid (2-acetoxybenzoic acid)] here?
**A.** 1.282

**Q.** What about the “OD (405–490 nm)” value (RT112; [3]) of the same compound?
**A.** 0.163

**Q.** And the “OD (405–490 nm)” value (RT112; [4])?
**A.** 0.413

**Q.** What about the “OD (405–490 nm)” value (RT112; [5]) of the same compound?
**A.** 1.508

**Q.** And the “effect on the proliferation rate” value [1]?
**A.** no effect or minor effect

**Q.** Which “OD (405–490 nm)” value (RT112; Table 1, measurement after 35 minutes, 800 ng/ml, initial pH 6.0) does the source give for `CC[C@@]1(O)C(=O)OCc2c1cc1n(c2=O)Cc2cc3ccccc3nc2-1` [CAM, camptothecin] here?
**A.** 0.818

**Q.** And the “OD (405–490 nm)” value (RT112; Table 1, measurement after 35 minutes, 800 ng/ml, initial pH 6.5)?
**A.** 3.037

**Q.** And the “OD (405–490 nm)” value (RT112; Table 1, measurement after 35 minutes, 800 ng/ml, initial pH 7.0)?
**A.** 2.725

**Q.** What about the “OD (405–490 nm)” value (RT112; Table 1, measurement after 35 minutes, 800 ng/ml, initial pH 7.4) of the same compound?
**A.** 2.416

**Q.** And the “OD (405–490 nm)” value (RT112; Table 2, measurement after 35 minutes, 160 ng/ml, initial pH 6.0)?
**A.** 0.344

**Q.** What about the “OD (405–490 nm)” value (RT112; Table 2, measurement after 35 minutes, 160 ng/ml, initial pH 6.5) of the same compound?
**A.** 0.711

**Q.** What about the “OD (405–490 nm)” value (RT112; Table 2, measurement after 35 minutes, 160 ng/ml, initial pH 7.0) of the same compound?
**A.** 1.220

**Q.** What about the “OD (405–490 nm)” value (RT112; Table 2, measurement after 35 minutes, 160 ng/ml, initial pH 7.4) of the same compound?
**A.** 1.923

**Q.** What about the “OD (405–490 nm)” value (RT112; Table 3, measurement after 20 minutes, 800 ng/ml, initial pH 6.0) of the same compound?
**A.** 1.681

**Q.** And the “OD (405–490 nm)” value (RT112; Table 3, measurement after 20 minutes, 800 ng/ml, initial pH 6.5)?
**A.** 1.708

**Q.** What about the “OD (405–490 nm)” value (RT112; Table 3, measurement after 20 minutes, 800 ng/ml, initial pH 7.0) of the same compound?
**A.** 1.791

**Q.** What about the “OD (405–490 nm)” value (RT112; Table 3, measurement after 20 minutes, 800 ng/ml, initial pH 7.4) of the same compound?
**A.** 2.217

**Q.** Which “effect on the proliferation rate” value [1] does the source give for `O=C(O)c1c(O)cc(O)cc1O` [DHSA, 2,4,6-trihydroxybenzoic acid] here?
**A.** no effect or minor effect

**Q.** How did the “OD (405–490 nm)” value (RT112; Table 1, measurement after 35 minutes, 5 mM, initial pH 6.0) turn out when `O=C(O)c1c(O)cccc1O` [Substance 136, 2,6-dihydroxybenzoic acid] was run?
**A.** 0.187

**Q.** And the “OD (405–490 nm)” value (RT112; Table 1, measurement after 35 minutes, 5 mM, initial pH 6.5)?
**A.** 0.918

**Q.** And the “OD (405–490 nm)” value (RT112; Table 1, measurement after 35 minutes, 5 mM, initial pH 7.0)?
**A.** 0.321

**Q.** What about the “OD (405–490 nm)” value (RT112; Table 1, measurement after 35 minutes, 5 mM, initial pH 7.4) of the same compound?
**A.** 0.382

**Q.** And the “OD (405–490 nm)” value (RT112; Table 1, measurement after 35 minutes, 7 mM, initial pH 6.0)?
**A.** 0.221

**Q.** What about the “OD (405–490 nm)” value (RT112; Table 1, measurement after 35 minutes, 7 mM, initial pH 6.5) of the same compound?
**A.** 1.287

**Q.** What about the “OD (405–490 nm)” value (RT112; Table 1, measurement after 35 minutes, 7 mM, initial pH 7.0) of the same compound?
**A.** 0.524

**Q.** What about the “OD (405–490 nm)” value (RT112; Table 1, measurement after 35 minutes, 7 mM, initial pH 7.4) of the same compound?
**A.** 0.816

**Q.** And the “effect on the proliferation rate” value [1]?
**A.** no effect or minor effect

**Q.** Which results are given for `Nc1ccc(C(=O)O)c(O)c1` [Substance 58a, 2-hydroxy-4-aminobenzoic acid]?
**A.** OD (405–490 nm) (RT112; [6]): 0.320; OD (405–490 nm) (RT112; [7]): 0.282; OD (405–490 nm) (RT112; [8]): 0.574; OD (405–490 nm) (RT112; [9]): 1.835; effect on the proliferation rate [1]: no effect or minor effect

**Q.** With `CC(=O)Oc1ccc(C(=O)O)c(OC(C)=O)c1` [Substance 132, 2,4-diacetoxybenzoic acid] as the compound, how does the “OD (405–490 nm)” value (RT112; [2]) read?
**A.** 2.856

**Q.** And the “OD (405–490 nm)” value (RT112; [3])?
**A.** 0.183

**Q.** What about the “OD (405–490 nm)” value (RT112; [4]) of the same compound?
**A.** 0.088

**Q.** What about the “OD (405–490 nm)” value (RT112; [5]) of the same compound?
**A.** 0.502

**Q.** What about the “OD (405–490 nm)” value (RT112; Table 3, measurement after 20 minutes, 5 mM, initial pH 6.0) of the same compound?
**A.** 0.407

**Q.** What about the “OD (405–490 nm)” value (RT112; Table 3, measurement after 20 minutes, 5 mM, initial pH 6.5) of the same compound?
**A.** 0.371

**Q.** What about the “OD (405–490 nm)” value (RT112; Table 3, measurement after 20 minutes, 5 mM, initial pH 7.0) of the same compound?
**A.** 0.422

**Q.** What about the “OD (405–490 nm)” value (RT112; Table 3, measurement after 20 minutes, 5 mM, initial pH 7.4) of the same compound?
**A.** 0.916

**Q.** What does the source list for `COc1ccc(C(=O)O)c(OC)c1` [Substance 188, 2,4-dimethoxybenzoic acid]?
**A.** OD (405–490 nm) (RT112; [6]): 0.256; OD (405–490 nm) (RT112; [7]): 0.309; OD (405–490 nm) (RT112; [8]): 0.502; OD (405–490 nm) (RT112; [9]): 1.854
